# Values of other authors as cited in article PMC4346355 (Journal of computer-aided molecular design, 2014).
# Where two headings read alike, the source gives them in different places.
# Assays:
# [1] = tested on: interaction of LEDGF with integrase
# [2] = tested on: strand transfer activity of HIV integrase
# [3] = tested on: HIV-1 infection of PBMC cells; conditions: read-out: EC50 HIV-1 infection of PBMC cells
# [4] = tested on: HIV-1 infection of MT-4 cells; conditions: read-out: EC50 HIV-1 infection of MT-4 cells
# [5] = target: HIV integrase catalytic core domain core4H (additional Y131D mutation); conditions: read-out: SPR KD (core4H)
# [6] = target: LEDGF-integrase interaction; conditions: assay not named
smiles,measurement,setting,value
COc1cccc2c1c(/C(O)=C/C(=O)C(=O)O)cn2Cc1ccc(F)cc1 [CHI-1043],inhibition in AlphaScreen assay for binding at the LEDGF site,[1],36 µM
same,inhibition in active site directed strand transfer assay,[2],0.14 µM
CCCC(C(=O)O)c1c(C)nc2ccc(Cl)cc2c1-c1ccccc1 (centres unmarked) [CX04328],EC50,[3],3.45 µM
same,IC50,"[1]; assay not given, series assayed in AlphaScreen",1.37 µM
same,EC50,[4],2.73 µM
same,IC50,[2]; read-out: IC50 inhibition of strand transfer activity,19.5 µM
C=CCN(Cc1ccccc1C(=O)NCc1ccccc1)Cc1ccc2c(c1C(=O)O)OCO2 [Compound 3ZSX],Kd,[5],1060 µM
CN(Cc1ccccc1C(=O)NCC1CCCCC1)Cc1ccc2c(c1C(=O)O)OCO2 [Compound 3ZSY],Kd,[5],> 2000 µM
CC[C@H](C)NC(=O)c1ccccc1CN(C)Cc1ccc2c(c1C(=O)O)OCO2 [Compound 3ZSZ],Kd,[5],> 2000 µM
"O=C(NCC1CCCCC1)c1cc(S(=O)(=O)N2CCCCC2)cc(O)c1O [N-(cyclohexylmethyl)-2,3-dihydroxy-5-(piperidin-1-ylsulfonyl) benzamide]",IC50,[6],8 µM
same,IC50,[2]; read-out: IC50 strand transfer,19 µM
